Laboratory results taken from ChEMBL document CHEMBL4422618, “Translational impact of novel widely pharmacological characterized mofezolac-derived COX-1 inhibitors combined with bortezomib on human multiple myeloma cell lines viability” (Eur J Med Chem, 2019).
The source made the active and inactive calls. The rule behind the calls is not given here.

Assays:
RPMI-8226 [1] = assay: Cell cycle arrest in human RPMI8226 cells assessed as accumulation at S phase at 1.7 uM in presence of bortezomib after 48 hrs by propidium iodide/RNase staining based flow cytometric method relative to bortezomib; type: functional
NCI-H929 [2] = assay: Potentiation of bortezomib-induced cytotoxicity against human NCI-H929 cells assessed as reduction in cell viability at […] after 48 hrs in presence of bortezomib by CCK8 assay; type: functional, cell-based
RPMI-8226 [3] = assay: Cell cycle arrest in human RPMI8226 cells assessed as accumulation at G0/G1 phase at 1.7 uM in presence of bortezomib after 48 hrs by propidium iodide/RNase staining based flow cytometric method relative to bortezomib; type: functional
NCI-H929 [4] = assay: Induction of apoptosis in human NCI-H929 cells assessed as necrotic cells at 1.7 uM after 48 hrs by Annexin-V/propidium iodide staining based flow cytometric method (reference value: 0.0034%); type: functional
RPMI-8226 [5] = assay: Induction of apoptosis in human RPMI8226 cells assessed as viable cells at 1.7 uM after 48 hrs in presence of bortezomib by Annexin-V/propidium iodide staining based flow cytometric method (reference value: 98.7%); type: functional; conditions: RPMI-8226, 48 h, read-out: Activity
NCI-H929 [6] = assay: Induction of apoptosis in human NCI-H929 cells assessed as late apoptotic cells at 1.7 uM after 48 hrs in presence of bortezomib by Annexin-V/propidium iodide staining based flow cytometric method (reference value: 0.23%); type: functional
[7] = Mutagenicity in Salmonella typhimurium TA98 at 500 uM by Ames test; type: toxicity; conditions: salmonella enterica subsp. enterica serovar typhimurium
RPMI-8226 [8] = assay: Cell cycle arrest in human RPMI8226 cells assessed as accumulation at S phase at 1.7 uM after 48 hrs by propidium iodide/RNase staining based flow cytometric method; type: functional
[9] = Mutagenicity in Salmonella typhimurium TA97 at 500 uM by Ames test; type: toxicity; conditions: salmonella enterica subsp. enterica serovar typhimurium
[10] = Mutagenicity in Salmonella typhimurium TA100 at 500 uM by Ames test; type: toxicity; conditions: salmonella enterica subsp. enterica serovar typhimurium
[11] = Hemolytic activity in erythrocytes (unknown origin) at 100 uM after 3 hrs by spectrophotometric analysis; type: ADME, cell-based, Erythrocyte; conditions: read-out: Activity
Platelet = assay: Antiplatelet activity in human platelet rich plasma assessed as inhibition of arachidonic acid-induced platelet aggregation preincubated for 2 mins followed by arachidonic acid addition by turbidimetric method; type: functional, cell-based
NCI-H929 [12] = assay: Induction of apoptosis in human NCI-H929 cells assessed as early apoptotic cells at 1.7 uM after 48 hrs in presence of bortezomib by Annexin-V/propidium iodide staining based flow cytometric method (reference value: 17.1%); type: functional
RPMI-8226 [13] = assay: Induction of apoptosis in human RPMI8226 cells assessed as late apoptotic cells at 1.7 uM after 48 hrs in presence of bortezomib by Annexin-V/propidium iodide staining based flow cytometric method (reference value: 0.21%); type: functional
RPMI-8226 [14] = assay: Induction of apoptosis in human RPMI8226 cells assessed as early apoptotic cells at 1.7 uM after 48 hrs in presence of bortezomib by Annexin-V/propidium iodide staining based flow cytometric method (reference value: 1.05%); type: functional
[15] = Genotoxicity in Escherichia coli PQ37 at 500 uM after overnight incubation by SOS chromotest; type: toxicity
NCI-H929 [16] = assay: Induction of apoptosis in human NCI-H929 cells assessed as late apoptotic cells at 1.7 uM after 48 hrs by Annexin-V/propidium iodide staining based flow cytometric method (reference value: 0.23%); type: functional
NCI-H929 [17] = assay: Induction of apoptosis in human NCI-H929 cells assessed as viable cells at 1.7 uM after 48 hrs by Annexin-V/propidium iodide staining based flow cytometric method (reference value: 82.6%); type: functional; conditions: NCI-H929, 48 h, read-out: Activity
RPMI-8226 [18] = assay: Potentiation of bortezomib-induced cytotoxicity against human RPMI8226 cells assessed as reduction in cell viability at 1.7 uM after 48 hrs in presence of bortezomib by CCK8 assay; type: functional
Plasma [19] = assay: Anticoagulant activity in human platelet poor plasma assessed as prothrombin time at 100 uM incubated for 15 mins at room temperature and subsequent incubation for 2 mins at 37 degreeC followed by PBS addition and measured after 3 mins for every secs in presence of calcium thromboplastin; type: functional
NCI-H929 [20] = assay: Induction of apoptosis in human NCI-H929 cells assessed as necrotic cells at 1.7 uM after 48 hrs in presence of bortezomib by Annexin-V/propidium iodide staining based flow cytometric method (reference value: 0.0034%); type: functional
RPMI-8226 [21] = assay: Cytotoxicity against human RPMI8226 cells assessed as reduction in cell viability at […] after 48 hrs by CCK8 assay relative to control; type: functional
Plasma [22] = assay: Anticoagulant activity in human platelet poor plasma assessed as activated partial thromboplastin time at 100 uM incubated for 15 mins at room temperature and subsequent incubation for 2 mins at 37 degreeC followed by cephalin addition and measured after 2 mins for every secs in presence of CaCl2; type: functional
RPMI-8226 [23] = assay: Cell cycle arrest in human RPMI8226 cells assessed as accumulation at G0/G1 phase at 1.7 uM after 48 hrs by propidium iodide/RNase staining based flow cytometric method; type: functional
RPMI-8226 [24] = assay: Cell cycle arrest in human RPMI8226 cells assessed as reduction in accumulation at G2/M phase at 1.7 uM in presence of bortezomib after 48 hrs by propidium iodide/RNase staining based flow cytometric method relative to bortezomib; type: functional
NCI-H929 [25] = assay: Potentiation of bortezomib-induced cytotoxicity against human NCI-H929 cells assessed as reduction in cell viability at 42 nM after 48 hrs in presence of bortezomib by CCK8 assay; type: functional, cell-based
RPMI-8226 [26] = assay: Induction of apoptosis in human RPMI8226 cells assessed as necrotic cells at 1.7 uM after 48 hrs in presence of bortezomib by Annexin-V/propidium iodide staining based flow cytometric method (reference value: 0.090%); type: functional
NCI-H929 [27] = assay: Induction of apoptosis in human NCI-H929 cells assessed as viable cells at 1.7 uM after 48 hrs in presence of bortezomib by Annexin-V/propidium iodide staining based flow cytometric method (reference value: 82.6%); type: functional; conditions: NCI-H929, 48 h, read-out: Activity
[28] = Genotoxicity in Escherichia coli PQ35 at 500 uM after overnight incubation by SOS chromotest; type: toxicity
NCI-H929 [29] = assay: Induction of apoptosis in human NCI-H929 cells assessed as early apoptotic cells at 1.7 uM after 48 hrs by Annexin-V/propidium iodide staining based flow cytometric method (reference value: 17.1%); type: functional
[30] = Mutagenicity in Salmonella typhimurium TA102 at 500 uM by Ames test; type: toxicity; conditions: salmonella enterica subsp. enterica serovar typhimurium

Q: For `CC(=O)Oc1ccccc1C(=O)O` [ASPIRIN], which Activity (RPMI-8226 [1]) is on record?
A: Its Activity is “Active”.

Q: And the Activity (NCI-H929 [2])?
A: Its Activity is “inactive”.

Q: And the Activity (RPMI-8226 [3])?
A: The Activity was “Active”.

Q: And the Activity (NCI-H929 [4])?
A: The Activity was 0.016%.

Q: And the viability at 1.7 µM (RPMI-8226 [5])?
A: The viability at 1.7 µM was 91.6%.

Q: And the Activity (NCI-H929 [6])?
A: The Activity was 0.12%.

Q: What about the Activity [7] of the same compound?
A: The Activity was “Non-Toxic”.

Q: What about the Activity (RPMI-8226 [8]) of the same compound?
A: The Activity was “inactive”.

Q: What about the Activity [9] of the same compound?
A: The Activity was “Non-Toxic”.

Q: And the Activity [10]?
A: Its Activity is “Non-Toxic”.

Q: What about the hemolysis at 3 h, 100 µM [11] of the same compound?
A: The hemolysis at 3 h, 100 µM was 0%.

Q: And the IC50 (Platelet)?
A: Its IC50 is 1.11 µM.

Q: And the Activity (NCI-H929 [12])?
A: Its Activity is 54.6%.

Q: What about the Activity (RPMI-8226 [13]) of the same compound?
A: The Activity was 0.48%.

Q: And the Activity (RPMI-8226 [14])?
A: The Activity was 7.95%.

Q: And the Activity [15]?
A: Its Activity is “Non-Toxic”.

Q: And the Activity (NCI-H929 [16])?
A: Its Activity is 0.072%.

Q: And the viability at 1.7 µM (NCI-H929 [17])?
A: Its viability at 1.7 µM is 83.9%.

Q: And the Activity (RPMI-8226 [18])?
A: Its Activity is 66%.

Q: What about the PT (Plasma [19]) of the same compound?
A: The PT was 14.6 s.

Q: What about the Activity (NCI-H929 [20]) of the same compound?
A: Its Activity is 0.026%.

Q: And the Activity (RPMI-8226 [21])?
A: Its Activity is 7%.

Q: And the APTT (Plasma [22])?
A: Its APTT is 50.3 s.

Q: And the Activity (RPMI-8226 [23])?
A: The Activity was “inactive”.

Q: And the Activity (RPMI-8226 [24])?
A: Its Activity is “Active”.

Q: And the Activity (NCI-H929 [25])?
A: Its Activity is “inactive”.

Q: What about the Activity (RPMI-8226 [26]) of the same compound?
A: Its Activity is 0.014%.

Q: What about the viability at 1.7 µM (NCI-H929 [27]) of the same compound?
A: The viability at 1.7 µM was 45.2%.

Q: What about the Activity [28] of the same compound?
A: Its Activity is “Non-Toxic”.

Q: What about the Activity (NCI-H929 [29]) of the same compound?
A: The Activity was 16%.

Q: And the Activity [30]?
A: Its Activity is “Non-Toxic”.
